# In ChEMBL document CHEMBL4190291, “Imidazo[1,2-a]pyrazine, Imidazo[1,5-a]quinoxaline and Pyrazolo[1,5-a]quinoxaline derivatives as IKK1 and IKK2 inhibitors” (2017):
# Assays:
# [1] = molecular target: T1, Inhibitor of nuclear factor kappa-B kinase subunit alpha (Homo sapiens) (UniProt O15111); assay: Inhibition of full length human His-tagged IKK1 expressed in baculovirus expression system at 10 uM by Z'-LYTE assay
# T1 sequence (whole entry): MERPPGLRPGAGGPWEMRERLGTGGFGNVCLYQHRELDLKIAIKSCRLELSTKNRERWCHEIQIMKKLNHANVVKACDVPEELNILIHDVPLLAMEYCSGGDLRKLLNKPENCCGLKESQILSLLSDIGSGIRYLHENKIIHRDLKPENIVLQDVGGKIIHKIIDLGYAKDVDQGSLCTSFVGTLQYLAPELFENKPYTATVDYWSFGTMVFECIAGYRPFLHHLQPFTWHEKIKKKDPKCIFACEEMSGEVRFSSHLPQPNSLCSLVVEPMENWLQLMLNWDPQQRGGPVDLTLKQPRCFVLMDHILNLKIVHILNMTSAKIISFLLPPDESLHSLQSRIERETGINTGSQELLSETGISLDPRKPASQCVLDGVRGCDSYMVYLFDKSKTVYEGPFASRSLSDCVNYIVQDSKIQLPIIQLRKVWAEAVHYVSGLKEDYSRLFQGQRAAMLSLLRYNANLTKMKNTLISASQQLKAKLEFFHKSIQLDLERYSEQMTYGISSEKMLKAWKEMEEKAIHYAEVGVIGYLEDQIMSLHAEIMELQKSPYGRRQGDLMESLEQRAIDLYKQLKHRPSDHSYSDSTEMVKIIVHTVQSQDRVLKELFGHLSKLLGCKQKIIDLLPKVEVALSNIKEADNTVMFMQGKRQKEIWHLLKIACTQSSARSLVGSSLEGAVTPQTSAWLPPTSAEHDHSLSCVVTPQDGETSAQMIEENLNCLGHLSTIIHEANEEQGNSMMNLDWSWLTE
# [2] = molecular target: T2, Inhibitor of nuclear factor kappa-B kinase subunit beta (Homo sapiens) (UniProt O14920); assay: Inhibition of full length human GST-tagged IKK2 expressed in baculovirus expression system at 10 uM by Z'-LYTE assay
# T2 sequence (whole entry): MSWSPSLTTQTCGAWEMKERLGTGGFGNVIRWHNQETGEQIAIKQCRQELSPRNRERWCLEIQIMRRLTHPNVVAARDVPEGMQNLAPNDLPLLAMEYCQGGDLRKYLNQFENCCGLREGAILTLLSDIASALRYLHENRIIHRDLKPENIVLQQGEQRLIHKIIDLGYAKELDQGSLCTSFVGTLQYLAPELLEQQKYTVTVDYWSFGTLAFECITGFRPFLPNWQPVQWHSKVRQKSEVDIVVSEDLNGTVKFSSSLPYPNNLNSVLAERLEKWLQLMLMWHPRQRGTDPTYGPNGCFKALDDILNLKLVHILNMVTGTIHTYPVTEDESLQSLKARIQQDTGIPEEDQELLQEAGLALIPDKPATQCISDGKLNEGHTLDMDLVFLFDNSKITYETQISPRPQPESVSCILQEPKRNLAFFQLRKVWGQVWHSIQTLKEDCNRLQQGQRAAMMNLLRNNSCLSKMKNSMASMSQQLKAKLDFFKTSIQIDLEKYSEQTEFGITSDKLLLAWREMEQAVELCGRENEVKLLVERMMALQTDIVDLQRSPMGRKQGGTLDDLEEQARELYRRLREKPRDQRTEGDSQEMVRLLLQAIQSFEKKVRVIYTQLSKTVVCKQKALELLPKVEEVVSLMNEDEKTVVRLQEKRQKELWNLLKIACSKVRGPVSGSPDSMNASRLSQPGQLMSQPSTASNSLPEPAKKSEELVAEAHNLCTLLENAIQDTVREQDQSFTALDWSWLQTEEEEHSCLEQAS
# THP-1 = assay: Anti-inflammatory activity in human THP1 cells assessed as inhibition of LPS/INFgamma-induced TNFalpha production at 10 uM relative to control; type: functional
Compound,inhibition [1],inhibition [2],inhibition at 10 µM (THP-1)
CNc1nc2ccc(C)cc2n2ncc(Br)c12,-10%,-3%,
CNc1nc2cc(C)ccc2n2ncc(Br)c12,-6%,7%,
CNc1nc2ccccc2n2c(Br)nc(Br)c12,-1%,,
CNc1nccn2c(C)cnc12,-1%,-4%,
Cc1ccc2nc(NCCN)c3ncc(C)n3c2c1,8%,64%,
CNc1nc2ccccc2n2c(C)cnc12,-3%,5%,
CN(C)c1nc2ccccc2n2nccc12,-10%,17%,
CNc1nc2ccccc2n2c(Br)ncc12,0%,16%,
CNc1nc2ccc(C)cc2n2nccc12,-9%,19%,
CNc1nc2ccccc2n2ncc(Br)c12,0%,1%,
CNc1nccn2c(-c3ccc(O)c(O)c3)cnc12,5%,18%,
CNc1nc2ccccc2n2nccc12,5%,-2%,
CNc1nccn2c(-c3ccc(OC)c(OC)c3)cnc12,-9%,-1%,
CNc1nc2ccccc2n2cncc12,3%,1%,
Cc1ccc2c(c1)nc(N(C)C)c1ccnn12,-7%,4%,
COc1ccc(-c2cnc3c(N)nccn23)cc1OC,-2%,-4%,
CNc1nc2cc(C)ccc2n2nccc12,-4%,4%,
CNc1nc2ccccc2n2cnc(Br)c12,-5%,10%,
CNc1nc2ccc(C)cc2n2c(Br)cnc12,,,40%
Nc1nccn2c(Br)cnc12,7%,10%,
CNc1nc2ccc(C)cc2n2c(C)cnc12,,,45%
Nc1nccn2c(-c3ccc(O)c(O)c3)cnc12,20%,-8%,
Cc1ccc2nc(N(C)C)c3ccnn3c2c1,,1%,
CNc1nccn2c(Br)cnc12,5%,6%,
